Assays:
[1] = tested on: Acetobacter pasteurianus FERM BP-4176; assay: Shape/length of cellulose-producing bacterium by optical microscope; format: cell-based
Protocol: (§1) Seed culture was carried out by placing 20 ml of the above culture medium in a 100 ml flask with baffle, inoculating Acetobacter pasteurianus FERM BP-4176, and then culturing at 25° C. for 3 days with stirring at 200 rpm. The culture medium was crushed by a blender, and added to a main culture medium having the above composition in a concentration of 2% seed culture.
(§2) The main culture was carried out by static culture at 25° C. During the culture, culture solution and bacterial cellulose were withdrawn, and the morphology of bacteria was observed by an optical microscope, an electron microscope and an atomic force microscope.
(§3) Six main culture media were used, and nalidixic acid (NA) was added thereto in a concentration of 0.01 mM, 0.05 mM, 0.1 mM, 0.2 mM or 1.0 mM except one medium to which NA was not added.
(§4) Acetobacter pasteurianus FERM BP-4176 was cultured in static culture, and the culture solution and bacterial cellulose were withdrawn, and the shape of bacteria was observed by the optical microscope, the electron microscope and the atomic force microscope, similar to Example 1, except that chloramphenicol was used instead of nalidixic acid.
That is, six main culture media having the aforementioned composition were used, and chloramphenicol (CP) was added thereto in a concentration of 0.1 mM, 0.2 mM, 0.3 mM, 0.5 mM or 1.0 mM except one medium to which CP was not added.
as §4, with “form” for “shape”
That is, four main culture media having the aforementioned composition were used, and dithiothreitol (DTT) was added thereto in a concentration of 0.5 mM, 1.0 mM or 2.0 mM except one medium to which DTT was not added.
as §4, with “in agitation culture at 180 rpm instead of” for “in”, “electro” for “electron”, “1.” for “1, except that chloramphenicol was used instead of nalidixic acid.”
That is, […] main culture media having the aforementioned composition were used, and nalidixic acid (NA) was added thereto in a concentration of 0.10 mM, or 0.20 mM, except one medium to which NA was not added.

[2] = tested on: Acetobacter pasteurianus FERM BP-4176; assay: Production of bacterial cellulose in static culture; format: cell-based; conditions: NA 0.01 to 1.0 mM
Protocol: The culture medium used was composed of 50.0 g/l sucrose, 5.0 g/l “Total Amino Acid” (Ajinomoto Co., Inc.), 0.2 g/l phytic acid, 2.4 g/l magnesium sulfate and 1.0 g/l ammonium sulfate (pH 5.0).
as §1, §2, §3

SMILES | lengthening of bacterium compared with no addition of NA ([1]; 0.1 mM NA, static culture 2 days) | change of length of the cellulose-producing bacteria ([1]; agitation culture 180 rpm, 0.10 or 0.20 mM NA) | production of bacterial cellulose with increasing NA concentration [2] | length of the cellulose-producing bacterium, up to, relative to bacteria cultured in no CP medium ([1]; CP 0.1 to 1.0 mM, static culture) | change of length of the cellulose-producing bacterium with increasing concentration ([1]; static culture) | length of the bacterium as fraction of the bacteria cultured in no DTT medium ([1]; 1.0 mM DTT, static culture 2 days)
CCn1cc(C(=O)O)c(=O)c2ccc(C)nc21 [NA, nalidixic acid] | 2 to 4 times | increased | inhibited |  |  | 
O=C(N[C@H](CO)[C@H](O)c1ccc([N+](=O)[O-])cc1)C(Cl)Cl [CP, chloramphenicol] |  |  |  | 8 to 12 times | increased | 
O[C@H](CS)[C@H](O)CS (racemic) [DTT, dithiothreitol] |  |  |  |  | decreased | ⅓ to ½
